According to patent publication US12290513B2, “Therapeutic methods and compositions for treating movement disorders” (Vima Therapeutics, Inc., priority 2023, dated 2025):
Read-outs that look alike come from different tables or passages of the source.

Assays:
CYP2C9 = CYP2C9 (Homo sapiens, UniProt P11712); test: Incubation with recombinant CYP2C9; details: for t1/2: unit not given
[1] = biological target: M4 (h) (antagonist radioligand) (Homo sapiens, UniProt P08173); details: at the tested concentration; negative values set to zero
CYP1A2 = biological target: T1, CYP1A2 (Homo sapiens, UniProt P05177); test: Incubation with recombinant CYP1A2
T1 sequence (P05177 1-516): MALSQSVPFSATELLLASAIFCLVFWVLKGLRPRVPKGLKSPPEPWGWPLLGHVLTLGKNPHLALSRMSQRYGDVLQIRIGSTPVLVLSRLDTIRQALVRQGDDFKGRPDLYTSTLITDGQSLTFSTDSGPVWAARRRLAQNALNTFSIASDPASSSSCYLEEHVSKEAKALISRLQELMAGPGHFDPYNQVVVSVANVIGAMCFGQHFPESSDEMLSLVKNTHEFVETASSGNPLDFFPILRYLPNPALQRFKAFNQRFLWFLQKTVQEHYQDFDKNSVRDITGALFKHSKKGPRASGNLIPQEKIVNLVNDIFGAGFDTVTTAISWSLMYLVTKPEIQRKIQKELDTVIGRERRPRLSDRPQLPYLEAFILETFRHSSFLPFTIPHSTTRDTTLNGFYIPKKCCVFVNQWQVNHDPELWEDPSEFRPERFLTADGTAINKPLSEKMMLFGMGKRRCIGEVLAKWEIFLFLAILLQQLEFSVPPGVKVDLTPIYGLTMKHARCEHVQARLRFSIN

CYP2C19 = CYP2C19 (Homo sapiens, UniProt P33261); test: Incubation with recombinant CYP2C19
[2] = Whole blood stability, human
Description: Procedures for blood Stability. • A. 398 μL of blood from each species was added to an incubation plate, which was pre-warmed at 37C for 15 minutes. • B. After the pre-incubation, 2 μL of working solution (test compounds or control compounds) was spiked to 398 μL of blood to reach a final concentration of 1 μM for test compounds and 5 μM for control compounds. The final concentration of organic solvents is 0.5%. The assays were performed in duplicate. • C. The reaction samples were incubated at 37C. • D. Aliquots of 50 μL were taken from the reaction samples at 0, 15, 30, 60 and 120 minutes. The reaction was stopped by the addition of 50 μL ultrapure water and 400 μL cold acetonitrile. • E. All samples were vortexed for 10 minutes, followed by centrifugation at 3,220 g for 40 minutes to precipitate proteins. 100 μL of the supernatant was then transferred to a new plate. The supernatant was diluted with ultrapure water as needed for detection by LC-MS/MS. Sample Analysis
Samples were analyzed by LC-MS/MS to measure the concentration of the test compounds.
(§1) All calculations were carried out using Microsoft Excel and according to standard analysis methods that are known in the art.

[3] = Hepatocyte stability, rat
Description: • 1. 10 mM stock solutions of test compounds and positive control compound were prepared in appropriate solvent (DMSO). • 2. In separate conical tubes, 10 mM test compound and positive controls were diluted to 100 μM by combining 198 μL of 50% acetonitrile/50% water and 2 μL of 10 mM stock. Preparation of Hepatocytes • 1. Incubation medium (William's E Medium supplemented with GlutaMAX) and hepatocyte thawing medium were placed in a 37C water bath and warmed for at least 15 minutes prior to use. • 2. A vial of cryopreserved hepatocytes was thawed by placing the vial in a 37C water bath and gently shaken for 2 minutes. After thawing was completed, the vial was cleaned with 70% ethanol and transferred to a biosafety cabinet. • 3. Using wide-bore pipette tips, hepatocytes were transferred into a 50 mL conical tube containing thawing medium. The 50 mL conical tube was placed into a centrifuge and spun at 100 g for 10 minutes. […] Using AO/PI Staining, cells were counted to determine the viable cell density. Cells were diluted with incubation medium to a working cell density of 0.5×10^6 viable cells/mL. Procedure for Stability Determination • 1. 198 μL of hepatocytes were pipetted into each well of a 96-well non-coated plate. The plate was placed in the incubator to allow the hepatocytes to warm for 10 minutes. • 2. 2 μL of the 100 μM test compound or positive control was pipetted into respective wells of the 96-well non-coated plate to start the reaction. The plate was returned to the incubator for the designed time points. • 3. The contents of the wells were removed in 25 μL aliquots at time points of 0.5, 15, 30, 60, 90 and 120 minutes. The aliquots were then mixed with 6 volumes (150 μL) of acetonitrile containing an internal standard, IS (100 nM alprazolam, 200 nM caffeine and 100 nM tolbutamide), to terminate the reaction. Samples were vortexed for 5 minutes and centrifuged for 45 minutes at 3,220 g. Aliquots of 100 μL of supernatant were diluted with 100 μL ultra-pure water, and the mixture was used for LC/MS/MS analysis. All incubations were performed in duplicate. Data Analysis
as §1

in vitro = details: mouse, liver microsomes

CYP2C9, sequence (P11712 whole entry): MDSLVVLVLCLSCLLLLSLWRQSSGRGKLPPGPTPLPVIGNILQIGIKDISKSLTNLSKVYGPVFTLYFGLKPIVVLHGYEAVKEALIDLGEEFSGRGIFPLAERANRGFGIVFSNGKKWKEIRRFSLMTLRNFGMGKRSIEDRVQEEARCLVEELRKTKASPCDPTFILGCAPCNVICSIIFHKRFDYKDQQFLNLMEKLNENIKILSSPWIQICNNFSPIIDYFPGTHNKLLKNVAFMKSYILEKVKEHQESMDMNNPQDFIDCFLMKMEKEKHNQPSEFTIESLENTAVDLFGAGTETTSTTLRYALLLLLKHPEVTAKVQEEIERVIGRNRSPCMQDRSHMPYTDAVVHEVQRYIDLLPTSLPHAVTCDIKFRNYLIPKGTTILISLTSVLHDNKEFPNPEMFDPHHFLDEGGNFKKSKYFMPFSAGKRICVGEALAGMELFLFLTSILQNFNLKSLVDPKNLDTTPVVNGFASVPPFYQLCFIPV
M4 (h) (antagonist radioligand), sequence (P08173 whole entry): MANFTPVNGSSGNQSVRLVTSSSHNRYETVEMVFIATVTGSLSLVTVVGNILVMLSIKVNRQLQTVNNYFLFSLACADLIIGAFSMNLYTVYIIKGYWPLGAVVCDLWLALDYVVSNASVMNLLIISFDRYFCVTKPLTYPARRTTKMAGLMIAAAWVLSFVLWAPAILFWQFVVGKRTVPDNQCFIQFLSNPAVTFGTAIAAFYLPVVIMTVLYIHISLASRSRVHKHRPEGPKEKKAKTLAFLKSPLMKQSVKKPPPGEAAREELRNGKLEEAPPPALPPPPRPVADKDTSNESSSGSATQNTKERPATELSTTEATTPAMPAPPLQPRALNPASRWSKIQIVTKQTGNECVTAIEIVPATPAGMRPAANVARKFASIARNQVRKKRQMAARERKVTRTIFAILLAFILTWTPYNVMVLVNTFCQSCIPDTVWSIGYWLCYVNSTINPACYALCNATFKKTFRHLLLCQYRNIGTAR
CYP2C19, sequence (P33261 whole entry): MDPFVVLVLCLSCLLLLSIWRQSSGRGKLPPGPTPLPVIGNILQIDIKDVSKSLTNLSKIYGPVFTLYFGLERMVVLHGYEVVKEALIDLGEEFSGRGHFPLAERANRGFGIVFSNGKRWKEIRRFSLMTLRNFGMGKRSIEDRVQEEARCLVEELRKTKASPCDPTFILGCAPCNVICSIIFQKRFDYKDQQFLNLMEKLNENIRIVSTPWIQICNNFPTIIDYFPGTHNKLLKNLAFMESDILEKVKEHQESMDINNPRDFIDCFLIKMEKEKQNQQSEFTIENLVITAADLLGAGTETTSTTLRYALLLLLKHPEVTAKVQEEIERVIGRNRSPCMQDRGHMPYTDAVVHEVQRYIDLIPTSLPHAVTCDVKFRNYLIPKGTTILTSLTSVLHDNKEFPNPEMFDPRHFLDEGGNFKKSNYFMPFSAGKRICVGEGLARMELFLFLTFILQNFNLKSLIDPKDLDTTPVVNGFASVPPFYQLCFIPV

| CLint (CYP2C9) [µL/min/pmol] | t1/2 (CYP2C9) | signal, M4 (h) (antagonist radioligand) [1] [%] | CLint (CYP1A2) [µL/min/pmol] | Substrates of CYP1A2 (CYP1A2) | Substrates of CYP1A2 (CYP1A2; listed as R) | Substrates of CYP2C19 (CYP2C19) | Remaining Percentages (%) 0 min ([2]; human whole blood, 37C) [%] | t1/2 ([2]; human whole blood, 37C) | CLint scaled at 1 μM ([3]; cryopreserved hepatocytes) [mL/min/kg] | half-life at 1 μM ([3]; cryopreserved hepatocytes) [min] | hepatocyte CLint at 1 μM ([3]; cryopreserved hepatocytes) [µL/min/1e6 cells] | CLint scaled (in vitro) [mL/min/kg] | half-life at 1 μM (in vitro) [min] | microsomal CLint at 1 μM (in vitro) [µL/min/mg] | t1/2 ([2]; human, blood) | Predicted Hepatic CLH ([3]; hepatocytes) [mL/min/kg] | in vitro t1/2 ([3]; hepatocytes) | half-life (CYP1A2; human) [min] | Substrates of CYP1A2 (CYP1A2; listed as S) | SMILES |
| --- | --- | --- | --- | --- | --- | --- | --- | --- | --- | --- | --- | --- | --- | --- | --- | --- | --- | --- | --- | --- |
| 0.00 | ∞ | 98.88 | 0.00 | not metabolized | no R | Rac, R and S | 100.00 | ∞ | 4420 | 1.47 | 945 | 2030 | 2.82 | 492 | – | – | – | – | – | O[C@@](CCN1CCCCC1)(c1ccccc1)C1CCCCC1 [(R)-THP, (R)-trihexyphenidyl] |
| – | – | – | – | – | – | – | 100.00 | – | – | – | – | – | – | – | ∞ | 0 | ∞ | – | – | C[C@@H](C[N+](C)(C)C)OC(N)=O.[Cl-] [(S)-BTC, (S)-bethanechol] |
| 0.00 | ∞ | 97.82 | 0.20 | is metabolized | – | Rac, R and S | – | – | – | – | – | 1030 | 5.56 | 249 | – | – | – | 34.6 | S and Rac | O[C@](CCN1CCCCC1)(c1ccccc1)C1CCCCC1 [(S)-THP, (S)-trihexyphenidyl] |
